Experimental data: patent US10351500B2, “Method of using of dihydro-resveratrol or its stilbenoid derivatives and/or chemical variants as antimicrobial agents” (Hong Kong Baptist University, priority 2015, dated 2019)

What was measured:
[1] = test system: LTC-14 cells (pancreatic stellate cells); assay: Western blotting of α-SMA and FN1 in TGF-β-challenged LTC-14 PSCs; type: cell-based, rat
Protocol: LTC-14 cells were cultured at 37° C. under a humidified condition of 95% air and 5% CO2 in IMDM supplemented with 10% fetal bovine serum (FBS). Cells used in all the experiment were among passages 9 to 25. LTC-14 cells were seeded at a density of 1×10^5/well in a 12-well plate, and incubated with recombinant TGF-β at 5 ng/mL with dihydro-resveratrol at 0, 1, 5, 10 and 20 μg/mL in IMDM supplemented with 0.2% FBS for 24 hours. Cells were then harvested for protein extraction and Western blotting analysis or immunofluorescent staining.
Total proteins of the LTC-14 cells are extracted using RIPA lysis buffers containing protease inhibitors. Cell lysates were loaded and separated by SDS-polyacrylaminde gel electrophoresis. After wet electroblotting, proteins were transferred onto PVDF membranes (Bio-rad), blocked with 5% non-fat milk, probed with antibodies and visualized by utilization of an ECL kit (GE Healthcare).
Control was not treated with Resv or any stilbenoids. Total proteins were extracted and analyzed using Western blotting.
Total proteins were extracted and analyzed using Western blotting.

[2] = test system: A375 human melanoma cells; assay: cell migration assay, A375; type: cell-based; settings: A375, 25 μM, 24-h treatment
[3] = test system: skin color at the arms of individual human subjects; assay: skin colorimeter ITA° measurement after topical stilbenoid solution; type: in vivo
Protocol: To determine the skin color of the individual human subjects, the initial skin conditions at the arms of the individuals are tested by the skin colorimeter MPA 5 on day 0. The individual typology angle (ITA°) is calculated by the colorimeter based on the luminance (L*) and yellow-blue component (b*) values. The greater the ITA° value, the greater the skin whiteness [S. Del Bino and F. Bernerd. Variations in skin colour and the biological consequences of ultraviolet radiation exposure. British Journal of Dermatology 2013; 169 (Suppl. 3), 33-40]. In fact, skin colors are classified into 6 major divisions: very light, light, intermediate, tan, brown and dark as listed in Table 4. Two areas (2 cm×2 cm each) are selected as treated areas whereas regions surrounding the treated areas on the arms are regarded as control areas. A volume of 200 μL of the testing stilbenoids (2% by weight dissolved in ethanol) is applied to the designated area twice a day, day and night. At the end of the first week (day 7), individuals are tested with the skin colorimeter for recording the data about using the stilbenoids for 7 days. Again, at the end of the second week (day 14), individuals are tested with the skin colorimeter for recording the data about using the stilbenoids for 14 days.

[4] = test system: human embryonic kidney HEK293 cell line; assay: MTT cell viability assay, HEK293; type: cell-based
Protocol: The human colorectal carcinoma HCT-116 cell line, human pancreatic ductal adenocarcinoma PANC-1 cell line, human melanoma A375 cell line and human embryonic kidney HEK293 cell line were purchased from the American Type Culture Collection. Cells were cultured in high glucose DMEM growth medium supplemented with 10% fetal bovine serum, penicillin and streptomycin (100 U) in a humidified atmosphere of 5% CO2, 95% air at 37° C. Upon the addition of dihydro-resveratrol (D-res) to the HCT-116, PANC-1, A375 or HEK293 cells seeded at a density of 8000 cells per well in a 96-well plate format, the viability of the testing cells was determined 24 h post treatment using the (3-(4,5-dimethylthiazol-2-yl)-2,5-diphenyltetrazolium bromide) tetrazolium (MTT) reduction assay and expressed as growth inhibition of 50% (GI50, Table 6).

Compound: Oc1ccc(CCc2cc(O)cc(O)c2)cc1 [Dihydro-resveratrol, trans-3,5,4′-trihydroxybibenzyl]
- expression levels of α-SMA and FN1 ([1]; rat PSCs upon challenge of TGF-β): significantly attenuate
- anti-fibrotic effect in PSCs among the testing stilbenoids ([1]; rat PSCs, TGF-β): most potent anti-fibrotic effect
- migratory ability [2]: significant reduction in the migratory ability
- whitening effect on skin ([3]; 2% by weight in ethanol, topical twice a day, most individuals): Overt whitening effect
- ITA° measurement ([3]; Individual No. 1, day 7, 2% solution topical): 49.0 ± 1.732 °
- ITA° measurement ([3]; Individual No. 1, day 14, 2% solution topical): 52.4 ± 1.166 °
- ITA° measurement ([3]; Individual No. 2, day 7, 2% solution topical): 41.1 ± 3.391 °
- ITA° measurement ([3]; Individual No. 2, day 14, 2% solution topical): 49.8 ± 4.630 °
- ITA° measurement ([3]; Individual No. 3, day 7, 2% solution topical): 35.0 ± 1.000 °
- ITA° measurement ([3]; Individual No. 3, day 14, 2% solution topical): 33.8 ± 0.837 °
- ITA° measurement ([3]; Individual No. 4, day 7, 2% solution topical): 26.8 ± 2.371 °
- ITA° measurement ([3]; Individual No. 4, day 14, 2% solution topical): 35.2 ± 2.103 °
- ITA° measurement ([3]; Individual No. 5, day 7, 2% solution topical): 25.6 ± 1.817 °
- ITA° measurement ([3]; Individual No. 5, day 14, 2% solution topical): 27.8 ± 1.934 °
- ITA° measurement ([3]; Individual No. 6, day 7, 2% solution topical): 26.4 ± 2.649 °
- ITA° measurement ([3]; Individual No. 6, day 14, 2% solution topical): 34.6 ± 0.927 °
- ITA° measurement ([3]; Individual No. 7, day 7, 2% solution topical): 21.2 ± 0.837 °
- ITA° measurement ([3]; Individual No. 7, day 14, 2% solution topical): 23.8 ± 2.634 °
- ITA° measurement ([3]; Individual No. 8, day 7, 2% solution topical): 14.0 ± 2.345 °
- ITA° measurement ([3]; Individual No. 8, day 14, 2% solution topical): 16.2 ± 1.483 °
- ITA° measurement ([3]; Individual No. 9, day 7, 2% solution topical): −5.2 ± 0.837 °
- ITA° measurement ([3]; Individual No. 9, day 14, 2% solution topical): −2.2 ± 0.447 °
- GI50 ([4]; Homo sapiens, HEK293 embryonic kidney (serves as normal control), 24 h, MTT): 244.1 ± 0.96 µM
- selectivity implied by GI50 values (carcinoma cells vs HEK293) ([4]; Table 6): selectivity towards carcinoma cells
